Assay results taken from patent US20190031599A1, “INDANE DERIVATIVES AS MGLUR7 MODULATORS” (Takeda Pharmaceutical Company Limited, priority 2016, published 2019).
Counter-ions that a name gives are not always drawn.

Biological target: T1, human mGluR7 (Homo sapiens, UniProt Q14831)
T1 construct: expressed in transfected cells
Assay: mGluR7 assay: CRE-directed luciferase reporter gene assay, reduction of forskolin stimulated cAMP production
Assay type: cell-based
Conditions: stable CHO cell line expressing the CRE-luc reporter and human mGluR7 genes; decrease of forskolin stimulated luminescence; 10-point concentration-response, duplicate wells
How it was run: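 Stable CHO cell line co-expressing human mGluR7 and a CRE-luciferase reporter; compounds preincubated 15 min at 37 °C, then forskolin added and incubated 5 h at 37 °C. 10-point half-log concentration-response in duplicate, normalised to forskolin-alone (max) and forskolin plus tool mGluR7 agonist (min) controls.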

T1 sequence (Q14831 35-915): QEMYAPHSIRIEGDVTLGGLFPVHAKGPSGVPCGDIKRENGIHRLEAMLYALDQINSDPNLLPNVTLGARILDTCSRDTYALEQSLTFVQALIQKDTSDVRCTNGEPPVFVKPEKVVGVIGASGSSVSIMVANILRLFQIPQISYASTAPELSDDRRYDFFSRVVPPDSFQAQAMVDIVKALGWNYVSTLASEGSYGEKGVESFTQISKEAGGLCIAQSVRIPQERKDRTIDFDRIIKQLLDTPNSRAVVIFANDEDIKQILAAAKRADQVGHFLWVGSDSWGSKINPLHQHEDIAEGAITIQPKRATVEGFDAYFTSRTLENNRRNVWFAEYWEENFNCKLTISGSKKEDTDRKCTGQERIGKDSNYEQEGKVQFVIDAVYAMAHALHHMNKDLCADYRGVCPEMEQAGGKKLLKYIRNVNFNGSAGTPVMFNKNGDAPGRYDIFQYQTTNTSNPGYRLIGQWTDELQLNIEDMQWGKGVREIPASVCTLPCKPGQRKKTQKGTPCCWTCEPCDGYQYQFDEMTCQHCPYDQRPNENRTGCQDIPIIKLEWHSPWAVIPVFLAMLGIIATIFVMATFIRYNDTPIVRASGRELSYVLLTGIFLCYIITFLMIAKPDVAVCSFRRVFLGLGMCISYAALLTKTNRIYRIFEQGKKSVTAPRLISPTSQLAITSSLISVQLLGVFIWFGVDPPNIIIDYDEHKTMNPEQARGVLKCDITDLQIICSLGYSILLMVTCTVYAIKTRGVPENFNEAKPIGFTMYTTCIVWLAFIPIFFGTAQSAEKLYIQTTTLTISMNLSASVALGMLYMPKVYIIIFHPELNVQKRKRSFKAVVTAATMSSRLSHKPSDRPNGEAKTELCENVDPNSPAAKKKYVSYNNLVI

SMILES	EC50 [nM]
CC[C@H](C(=O)N[C@H]1Cc2ccccc2[C@@H]1N)c1ccc(F)cc1 [Example 52, (2S)—N-[(1S,2S)-1-amino-2,3-dihydro-1H-inden-2-yl]-2-(4-fluorophenyl)butanamide]	53
C[C@H](C(=O)N[C@H]1Cc2ccccc2[C@@H]1NCC(F)(F)F)c1ccc(F)cc1F [Example 59, (2S)-2-(2,4-difluorophenyl)-N-[(1S,2S)-1-[(2,2,2-trifluoroethyl)amino]-2,3-dihydro-1H-inden-2-yl]propanamide]	7
C[C@H](C(=O)N[C@H]1Cc2ccccc2[C@@H]1N(C)C)c1ccc(F)cc1 [Example 74, (2S)—N-(trans)-[1-(dimethylamino)-2,3-dihydro-1H-inden-2-yl]-2-(4-fluorophenyl)propanamide]	94
N[C@H]1c2ccccc2C[C@@H]1NC(=O)C1(c2ccccc2Cl)CC1 [Example 79, N-[(1S,2S)-1-amino-2,3-dihydro-1H-inden-2-yl]-1-(2-chlorophenyl)cyclopropane-1-carboxamide]	440
CC(=O)N[C@H]1c2ccccc2C[C@@H]1NC(=O)[C@@H](C)c1ccc(F)cc1F [Example 80, (2S)-2-(2,4-difluorophenyl)-N-[(1S,2S)-1-acetamido-2,3-dihydro-1H-inden-2-yl]propanamide]	814
COC1c2ccccc2C[C@@H]1NC(=O)[C@@H](NS(=O)(=O)c1c(C)noc1C)c1ccc(F)cc1 (stereo partly drawn) [Example 83, (2S)-2-(3,5-dimethyl-1,2-isoxazole-4-sulfonamido)-2-(4-fluorophenyl)-N-((trans)-1-methoxy-2,3-dihydro-1H-inden-2-yl)acetamide]	26
N[C@H]1c2ccccc2C[C@@H]1NC(=O)C(c1ccc(F)cc1)C1CC1 (stereo partly drawn) [Example 86, N-[(1S,2S)-1-amino-2,3-dihydro-1H-inden-2-yl]-2-cyclopropyl-2-(4-fluorophenyl)acetamide]	721
CC(C)(C)OC(=O)N[C@H]1c2ccccc2C[C@@H]1NC(=O)C1(c2ccccc2)COC1 [Example 88, tert-butyl N-[(1S,2S)-2-(3-phenyloxetane-3-amido)-2,3-dihydro-1H-inden-1-yl]carbamate]	53
C[C@H](C(=O)N[C@H]1Cc2ccccc2[C@@H]1NS(C)(=O)=O)c1ccc(F)cc1F [Example 89, (2S)-2-(2,4-difluorophenyl)-N-[(1S,2S)-1-methanesulfonamido-2,3-dihydro-1H-inden-2-yl]propanamide]	1610
C[C@H](C(=O)N[C@H]1Cc2ccccc2[C@@H]1NC1CCC1)c1ccc(F)cc1F [Example 91, (2S)—N-[(1S,2S)-1-(cyclobutylamino)-2,3-dihydro-1H-inden-2-yl]-2-(2,4-difluorophenyl)propanamide]	38
CC(C)(C)OC(=O)N[C@H]1c2ccccc2C[C@@H]1NC(=O)C1(c2ccc(F)cc2)CCOCC1 [Example 94, tert-butyl N-[(1S,2S)-2-[4-(4-fluorophenyl)oxane-4-amido]-2,3-dihydro-1H-inden-1-yl]carbamate]	46
CN[C@@H]1c2ccccc2C[C@H]1NC(=O)[C@@H](C)c1ccc(F)cc1 [Example 95, (2S)-2-(4-fluorophenyl)-N-[(1R,2R)-1-(methylamino)-2,3-dihydro-1H-inden-2-yl]propanamide]	9
COC1c2ccccc2C[C@@H]1NC(=O)[C@@H](NC(=O)C1CCOCC1)c1ccc(F)cc1 (stereo partly drawn) [Example 98, (2S)-2-(4-fluorophenyl)-N-(trans)-(1-methoxy-2,3-dihydro-1H-inden-2-yl)-2-[(oxan-4-yl)formamido]acetamide]	4
N[C@H]1c2ccccc2C[C@@H]1NC(=O)C(c1ccc(F)cc1F)N1CC(F)(F)C1 (stereo partly drawn) [Example 103, N-[(1S,2S)-1-amino-2,3-dihydro-1H-inden-2-yl]-2-(3,3-difluoroazetidin-1-yl)-2-(2,4-difluorophenyl)acetamide formate]	218
COC1CN(C(C(=O)N[C@H]2Cc3ccccc3[C@@H]2NC(=O)OC(C)(C)C)c2ccc(F)cc2F)C1 (stereo partly drawn) [Example 104, tert-butyl N-[(1S,2S)-2-[2-(2,4-difluorophenyl)-2-(3-methoxyazetidin-1-yl)acetamido]-2,3-dihydro-1H-inden-1-yl]carbamate]	12

Continued by falling EC50, values first:

EC50 [nM]	SMILES
2210	COc1ccc(C(C)C(=O)N[C@H]2Cc3ccccc3[C@@H]2N)cc1 (stereo partly drawn) [Example 57, N-[(1S,2S)-1-amino-2,3-dihydro-1H-inden-2-yl]-2-(4-methoxyphenyl)propanamide hydrochloride]
2190	CC(C)(C(=O)N[C@H]1Cc2ccccc2[C@@H]1N)c1ccc(F)cc1 [Example 99, N-[(1S,2S)-1-amino-2,3-dihydro-1H-inden-2-yl]-2-(4-fluorophenyl)-2-methylpropanamide]
1780	CC(C(=O)N[C@H]1Cc2ccccc2[C@@H]1N)c1ccc(C(F)(F)F)cc1 (stereo partly drawn) [Example 58, N-[(1S,2S)-1-amino-2,3-dihydro-1H-inden-2-yl]-2-[4-(trifluoromethyl)phenyl]propanamide hydrochloride]
582	CC(C)(C)OC(=O)N[C@H]1c2ccccc2C[C@@H]1NC(=O)C(C)(C)c1ccc(F)cc1 [Example 87, tert-butyl N-[(1S,2S)-2-[2-(4-fluorophenyl)-2-methylpropanamido]-2,3-dihydro-1H-inden-1-yl]carbamate]
320	CC(F)(C(=O)N[C@H]1Cc2ccccc2[C@@H]1N)c1ccc(F)cc1 (stereo partly drawn) [Example 75, N-[(1S,2S)-1-amino-2,3-dihydro-1H-inden-2-yl]-2-fluoro-2-(4-fluorophenyl)propanamide]
126	CC[C@H](C(=O)N[C@@H]1Cc2ccccc2[C@H]1N)c1ccc(F)cc1 [Example 53, (2S)—N-[(1R,2R)-1-amino-2,3-dihydro-1H-inden-2-yl]-2-(4-fluorophenyl)butanamide]
45	CN[C@H]1c2ccccc2C[C@@H]1NC(=O)[C@@H](C)c1ccc(F)cc1 [Example 64, (2S)-2-(4-fluorophenyl)-N-[(1S,2S)-1-(methylamino)-2,3-dihydro-1H-inden-2-yl]propanamide]
27	CC(C)(C)OC(=O)N[C@H]1c2ccccc2C[C@@H]1NC(=O)C(c1ccc(F)cc1F)N1CCC1 (stereo partly drawn) [Example 100, tert-butyl N-[(1S,2S)-2-[2-(azetidin-1-yl)-2-(2,4-difluorophenyl)acetamido]-2,3-dihydro-1H-inden-1-yl]carbamate]
21	C[C@H](C(=O)N[C@H]1Cc2ccccc2[C@@H]1NCC1CC1)c1ccc(F)cc1 [Example 47, (2S)—N-[(1S,2S)-1-[(cyclopropylmethyl)amino]-2,3-dihydro-1H-inden-2-yl]-2-(4-fluorophenyl)propanamide]
10	C[C@H](C(=O)N[C@H]1Cc2ccccc2[C@@H]1NCC1CCC1)c1ccc(F)cc1F [Example 90, (2S)—N-[(1S,2S)-1-[(cyclobutylmethyl)amino]-2,3-dihydro-1H-inden-2-yl]-2-(2,4-difluorophenyl)propanamide]
7	C[C@H](C(=O)N[C@H]1Cc2ccccc2[C@@H]1NCc1ncccc1F)c1ccc(F)cc1F [Example 92, (2S)-2-(2,4-difluorophenyl)-N-[(1S,2S)-1-{[(3-fluoropyridin-2-yl)methyl]amino}-2,3-dihydro-1H-inden-2-yl]propanamide]
